This is an account of results in US20160366886A1, “BIOCIDAL COMPOSITION, PREPARATION AND METHODS OF USE THEREOF” (BROMINE COMPOUNDS LTD., priority 2014, published 2016).

Data set [1] relates to Pseudomonas aeruginosa (ATCC 15442). Briefly: Biocidal activity against simulated biofilm (bacteria entrapped in alginate gel beads), surviving CFU. The data set is classed as cell-based. Particulars: for time of total kill: alginate beads, pH 7. From the text:
A biofilm simulation system developed by the Biofilm Bozeman Institute Montana (Grobe K. J., Zahler J., and Stewart P. S., 2002 in “Role of dose concentration in biocide efficacy against Pseudomonas aeruginosa Biofilms”, J. Industrial Microbiology & Biotechnology, vol. 29, pp 10-15), was used in this experiment to evaluate the efficacy of biocidal solutions against biofilm.
The biofilm simulation was created by entrapping bacteria in alginate gel beads. A plate of R2A agar was streaked with Pseudomonas aeruginosa (ATCC 15442) and incubated at 35° C. overnight. Buffer phosphate at pH 7.2 was used to scrap off the bacteria from the agar plate and to create a suspension. The bacterial suspension was mixed with an equal volume of an aqueous 4% sodium alginate solution, to make a final 2% alginate solution. The alginate and bacterial slurry were placed in a 50 ml syringe attached to a 22 gauge needle, connected to a compressed air tank, allowing the syringe to be pressurized. At 20 psig pressure a stream of small drops was forced out and dropped into a stirred solution of 50 mM CaCl2. The Ca^+2 cross linked the alginate, and semi solid beads with entrapped bacterial cells were formed. The beads were allowed to stir in the CaCl2 solution for about 20 minutes, and then rinsed in a dilute 5 mM CaCl2 solution. Several flasks containing 100 beads each were incubated overnight at 35° C. on a rotating shaker in a buffer solution (at pH 7) with 5 mM addition of CaCl2 to maintain the beads structure. The resulting beads diameter is about 2 mm
At the beginning of the experiment, the supernatant of the beads buffer suspension containing 5 mM CaCl2 was decanted and replaced by the 100 ml biocide solution with the required concentration (between 0.5, 1, 2.5 and 5 ppm as total Cl2).
After different interval contact times, 10 beads were removed and placed in a 5 g/l sodium thiosulfate solution containing 50 mM sodium citrate. The sodium citrate was used to dissolve the alginate gel and release the bacteria into the solution. The neutralizer-citrate solution was placed in the refrigerator for 2 hours, than diluted and placed on R2A agar plates using pour plate technique. The plates were incubated at 35° C. for 24-48 hours and counted. The efficacy and toxicity of the neutralizer were checked as well as a control experiment without biocide addition. Four concentrations (0.5, 1, 2.5 and 5 ppm) were tested at four different contact times (5, 15, 30, and 60 min) FIGS. 1-10 describe the surviving colony forming units (CFU) of the bacteria after the biocide treatment at different contact times.

The nature of data set [2]: Stability of the aqueous biocide solution (total active chlorine as Cl2 over time). It is filed as physicochemical. The source says: The concentration of the active chlorine is based on the measurement of total chlorine (as Cl2). The term “as Cl2” refers to the measurement of the active chlorine as total chlorine.
The mark [3] stands for this setting: 1 ppm dose, contact time not stated.

On to `[Na+].[O-]Cl` [NaOCl], for which the “effect on the microbe concentration” value in data set [1] (0.5 ppm dose) is recorded as “no effect was observed at all”. For the same compound, the “log reduction of microbe concentration” value in data set [1] (setting [3]) is 1 log; in data set [1] (2.5 ppm dose, after 60 min), 1 log; in data set [1] (2.5 ppm dose, contact time not stated) it was 1 log. The “time of total kill” value in data set [1] (5 ppm dose (as total Cl2)) was 60 min.
With `O=c1n(Cl)c(=O)n(Cl)c(=O)n1Cl` [TCCA, trichloroisocyanuric acid], the “effect on the microbe concentration” value in data set [1] (0.5 ppm dose) and in data set [1] (1 ppm dose) was “almost no activity” throughout. Also, the “log reduction of microbe concentration” value in data set [1] (setting [3]) is listed as 1 log. Also, the “time of total kill” value in data set [1] (2.5 ppm dose (as total Cl2)) is listed as 60 min; in data set [1] (5 ppm dose (as total Cl2)), 30 min.
As for `NCl` [chloramine], the “active chlorine reading (as Cl2)” value in data set [2] (after 20.3 hrs) turned out to be 493 ppm; in data set [2] (after 44.4 hrs), 223 ppm. The results for the “active chlorine remaining, percent of initial” value in data set [2] (after 20.3 hrs) and in data set [2] (after 44.4 hrs) were 91% and 41.4%, respectively. Further, the “time the solution / active Cl2 level stayed stable (unchanged)” value in data set [2] (aqueous solution about 500 ppm as Cl2) came to 2 h. Also, in data set [2] (freshly mixed solution, expected 500 ppm as Cl2), the “total active Cl2 found after mixing” value is reported as 539 ppm. Besides, the “log reduction of microbe concentration” value in data set [1] (0.5 ppm dose, contact time not stated) is recorded as 4 log.
As to `O=c1nc([O-])n(Cl)c(=O)n1Cl.[Na+]` [NaDCC, sodium dichloroisocyanurate], the “effect on the microbe concentration” value in data set [1] (0.5 ppm dose) and in data set [1] (1 ppm dose) was “almost no activity” throughout. Further, the “log reduction of microbe concentration” value is recorded as 1 log in data set [1] (setting [3]) and “more than 4 log” in data set [1] (2.5 ppm dose, after 60 min). Further, the “time of total kill” value was 60 min in data set [1] (2.5 ppm dose (as total Cl2)) and 30 min in data set [1] (5 ppm dose (as total Cl2)).
